Where two headings read alike, the source gives them in different places.

A word on the Ki: it is a measure of affinity in units of concentration, obtained from inhibition or displacement. By IC50 is commonly meant the concentration that gives 50% inhibition.

For assay [1], the target named is T1, human dopamine transporter (hDAT) (Homo sapiens, UniProt Q01959).
T1 construct: expressed in transfected cells; host or cells: HEK-293 cells stably expressing recombinant hDAT
As to the kind of experiment: [125I]RTI-55 binding to human dopamine transporter in HEK-293 hDAT membranes. Particulars: for Hill Coefficient: [125I]RTI-55 binding. The method, then: To characterize drug interactions with the human dopamine transporter (hDAT), drugs (approximately 30 nM to 10 μM) were incubated with a membrane preparation from HEK-293 cells stably expressing the recombinant hDAT, [^125I]RTI-55 (34 pM), and buffer in a final volume of 250 μl. Independent assays were conducted 2 to 3 times with duplicate determinations. The Cheng-Prusoff equation was used to convert IC50 values to Ki values.

Another assay deals with T2, hDAT (Homo sapiens, UniProt Q01959).
T2 construct: expressed in transfected cells; host or cells: HEK-293 cells stably expressing recombinant hDAT
The assay is described as follows: [3H]DA uptake in HEK hDAT cells. The format is cell-based. To be noted: Table II.

The target of assay [2] is T3, hSERT (Homo sapiens, UniProt P31645).
T3 construct: expressed in transfected cells; host or cells: HEK cells expressing hSERT
The assay is described as follows: [125I]RTI-55 binding in HEK hSERT membranes. To be noted: Table II; bound given in μM.

Assay [3] has as its target T3, hSERT. The assay is described as follows: [3H]5HT uptake in HEK-hSERT cells. Type of assay: cell-based. To be noted: Table II; bound given in μM.
Assay [4] addresses T4, hNET (Homo sapiens, UniProt P23975).
T4 construct: expressed in transfected cells; host or cells: HEK cells expressing hNET
As to the kind of experiment: [125I]RTI-55 binding in HEK-hNET membranes. To be noted: Table II.

For assay [5], the target named is T4, hNET. As to the kind of experiment: [3H]NE uptake in HEK-hNET cells. To be noted: Table II. Type of assay: cell-based.
The mark [6] stands for this setting: Table 1, [125I]RTI-55 34 pM, HEK-293 hDAT membranes, mean +/- range or s.e.m. of 2 or 3 experiments, read-out: Ki value.
Setting [7] is: Table 1, HEK-293 hDAT membranes.
Where [8] appears, read: Table II, read-out: [125I]RTI-55 Binding in HEK hDAT Membranes Ki (nM) sem.
Where [9] appears, read: read-out: [3H]DA Uptake in HEK hDAT cells IC50 (nM) sem.
Where [10] appears, read: read-out: [125I]RTI-55 Binding in HEK-hNET Membranes KI (nM) sem.
Where [11] appears, read: read-out: [3H]NE Uptake in HEK-hNET cells IC50 (nM) sem.
[12] abbreviates: Table II, bound given in μM, read-out: [125I]RTI-55 Binding in HEK hDAT Membranes Ki.
Setting [13] is: bound given in μM, read-out: [3H]DA Uptake in HEK hDAT cells IC50.
Setting [14] is: bound given in μM, read-out: [3H]NE Uptake in HEK-hNET cells IC50.
Setting [15] is: bound given in μM, read-out: [125I]RTI-55 Binding in HEK-hNET Membranes KI.

T1 sequence (Q01959 whole entry): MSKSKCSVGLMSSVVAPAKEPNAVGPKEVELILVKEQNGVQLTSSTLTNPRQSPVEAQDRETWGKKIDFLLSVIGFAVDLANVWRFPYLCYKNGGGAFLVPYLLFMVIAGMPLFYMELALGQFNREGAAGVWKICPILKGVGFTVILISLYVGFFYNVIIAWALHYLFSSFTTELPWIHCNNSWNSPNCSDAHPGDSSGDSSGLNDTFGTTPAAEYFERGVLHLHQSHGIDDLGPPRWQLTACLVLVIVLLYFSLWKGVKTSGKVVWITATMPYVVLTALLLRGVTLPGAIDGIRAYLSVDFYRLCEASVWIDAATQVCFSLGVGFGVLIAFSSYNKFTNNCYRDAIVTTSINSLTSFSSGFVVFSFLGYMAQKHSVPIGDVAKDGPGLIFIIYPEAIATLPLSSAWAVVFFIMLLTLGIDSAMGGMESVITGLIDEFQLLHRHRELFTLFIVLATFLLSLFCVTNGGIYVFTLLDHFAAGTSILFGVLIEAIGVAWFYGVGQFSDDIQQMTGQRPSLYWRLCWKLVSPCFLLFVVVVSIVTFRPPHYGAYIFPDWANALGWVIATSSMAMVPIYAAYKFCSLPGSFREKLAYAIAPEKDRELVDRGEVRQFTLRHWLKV
T2 sequence (Q01959 whole entry): as above
T4 sequence (P23975 whole entry): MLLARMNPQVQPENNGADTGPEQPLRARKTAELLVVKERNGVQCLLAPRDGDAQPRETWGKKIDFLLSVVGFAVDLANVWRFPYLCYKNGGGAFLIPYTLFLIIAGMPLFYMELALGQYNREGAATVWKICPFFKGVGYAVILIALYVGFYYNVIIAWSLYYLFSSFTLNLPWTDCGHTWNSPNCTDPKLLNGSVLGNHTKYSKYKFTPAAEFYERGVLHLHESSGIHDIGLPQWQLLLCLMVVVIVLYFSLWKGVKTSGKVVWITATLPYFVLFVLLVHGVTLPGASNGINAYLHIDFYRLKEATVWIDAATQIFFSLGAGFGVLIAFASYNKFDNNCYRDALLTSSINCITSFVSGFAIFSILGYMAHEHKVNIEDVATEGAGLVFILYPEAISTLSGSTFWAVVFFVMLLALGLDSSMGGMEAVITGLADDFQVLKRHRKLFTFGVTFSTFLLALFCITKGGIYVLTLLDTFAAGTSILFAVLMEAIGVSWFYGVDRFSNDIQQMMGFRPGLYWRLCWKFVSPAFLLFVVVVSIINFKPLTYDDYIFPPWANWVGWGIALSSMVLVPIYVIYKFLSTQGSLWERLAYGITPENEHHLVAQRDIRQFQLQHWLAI
T3 sequence (P31645 whole entry): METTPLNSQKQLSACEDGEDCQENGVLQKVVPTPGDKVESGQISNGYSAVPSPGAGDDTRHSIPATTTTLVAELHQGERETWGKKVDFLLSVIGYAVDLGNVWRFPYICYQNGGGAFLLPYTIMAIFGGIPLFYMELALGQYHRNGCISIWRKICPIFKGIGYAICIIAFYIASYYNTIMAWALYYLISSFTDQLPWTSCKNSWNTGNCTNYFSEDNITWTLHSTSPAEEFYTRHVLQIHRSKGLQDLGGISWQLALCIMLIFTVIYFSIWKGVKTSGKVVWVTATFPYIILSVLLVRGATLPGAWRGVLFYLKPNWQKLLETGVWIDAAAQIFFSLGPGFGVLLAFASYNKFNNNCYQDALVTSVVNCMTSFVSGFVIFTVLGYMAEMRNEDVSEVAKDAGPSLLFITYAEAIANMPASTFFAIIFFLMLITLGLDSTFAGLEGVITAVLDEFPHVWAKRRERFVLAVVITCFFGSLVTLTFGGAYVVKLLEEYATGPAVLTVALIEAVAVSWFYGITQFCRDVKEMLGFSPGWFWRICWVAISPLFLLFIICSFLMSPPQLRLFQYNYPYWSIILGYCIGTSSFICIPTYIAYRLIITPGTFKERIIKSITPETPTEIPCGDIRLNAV

Regarding `O=C(O)C(/C=C/c1ccccc1)C1CCN(CCOC(c2ccc(F)cc2)c2ccc(F)cc2)CC1` (stereo not shown) [ZHN-93], the inhibition constant Ki is 727 ± 291 nM in assay [1] (setting [6]), 727 ± 291 nM in assay [1] (setting [8]), greater than 10 µM at hSERT [2] and 4540 ± 1540 nM at hNET [4] (setting [10]). Also, in assay [1] (setting [7]), the “Hill Coefficient” value is recorded as −1.0 ± 0.3. Also, the “[125I]RTI-55 Binding in HEK hDAT Membranes Hill slope” value in assay [1] (Table II) was −1.02 ± 0.30. Further, the 50% inhibitory concentration (IC50) at hDAT (setting [9]) is 182 ± 59 nM; against hSERT [3] it was greater than 10 µM; on hNET [5] (setting [11]), 117 ± 20 nM. Also, the “[125I]RTI-55 Binding in HEK-hNET Membranes Hill slope” value on hNET [4] is listed as −1.78 ± 0.65.
Consider `O=C(O)C(/C=C/c1ccccc1)NC1CCc2ccccc21` (stereo not shown) [RNH-Z-39], for which the figures for the inhibition constant (Ki) (in assay [1] (setting [12]); on hSERT [2]; on hNET [4] (setting [10])) were greater than 10000 nM, greater than 10 µM and 2920 ± 1230 nM, respectively. The IC50 is greater than 10000 nM at hDAT (setting [13]), greater than 10 µM on hSERT [3] and greater than 10000 nM at hNET [5] (setting [14]). Further, the “[125I]RTI-55 Binding in HEK-hNET Membranes Hill slope” value on hNET [4] is given as −0.96 ± 0.17.
Turning to `O=C(O)C(/C=C/c1ccccc1)N1CCN(CCOC(c2ccccc2)c2ccccc2)CC1` (stereo not shown) [ZHN-94], the inhibition constant Ki in assay [1] (setting [6]) is 2780 ± 1250 nM; in assay [1] (setting [8]), 2780 ± 1250 nM; on hSERT [2] it was greater than 10 µM; on hNET [4] (setting [15]), greater than 10000 nM. Besides, the “Hill Coefficient” value in assay [1] (setting [7]) is on record as −0.8 ± 0.2. For the same molecule, the “[125I]RTI-55 Binding in HEK hDAT Membranes Hill slope” value in assay [1] (Table II) was −0.78 ± 0.17. The IC50 on hDAT (setting [9]) was 385 ± 111 nM; at hSERT [3], greater than 10 µM; at hNET [5] (setting [11]) it was 2200 ± 470 nM.
For `O=C(O)C(/C=C/c1ccccc1)N1CCC(O)(c2ccc(Cl)cc2)CC1` (stereo not shown) [RNH-Z-48], the results for the inhibition constant (Ki) (in assay [1] (setting [12]); at hSERT [2]; on hNET [4] (setting [15])) were greater than 10000 nM, greater than 10 µM and greater than 10000 nM, respectively. Moreover, the 50% inhibitory concentration (IC50) at hDAT (setting [13]) was greater than 10000 nM; against hSERT [3], greater than 10 µM; on hNET [5] (setting [14]) it was greater than 10000 nM.
As to `CN(C)C(=O)C(/C=C/c1ccccc1)N1CCC(c2ccccc2)CC1` (stereo not shown) [RNH-Z-28], the Ki in assay [1] (setting [6]) is 3920 ± 1240 nM; in assay [1] (setting [8]), 3920 ± 1240 nM; on hSERT [2], greater than 10 µM; at hNET [4] (setting [15]), greater than 10000 nM. For the same molecule, the “Hill Coefficient” value in assay [1] (setting [7]) is recorded as −2.1 ± 0.6. For the same molecule, in assay [1] (Table II), the “[125I]RTI-55 Binding in HEK hDAT Membranes Hill slope” value is recorded as −2.09 ± 0.60. The concentration for half-maximal inhibition (IC50) on hDAT (setting [9]) is 4040 ± 1630 nM; against hSERT [3], greater than 10 µM; at hNET [5] (setting [11]), 211 ± 65 nM.
As for `CC(Cc1cccc(C(F)(F)F)c1)NC(/C=C/c1ccccc1)C(=O)O` (stereo not shown) [RNH-Z-58], the inhibition constant Ki was greater than 10000 nM in assay [1] (setting [12]), greater than 10 µM at hSERT [2] and greater than 10000 nM at hNET [4] (setting [15]). Besides, the results for the IC50 at hDAT (setting [13]), on hSERT [3] and at hNET [5] (setting [14]) were greater than 10000 nM, greater than 10 µM and greater than 10000 nM, respectively.
For `CN(CCC=C1c2ccccc2CCc2ccccc21)C(/C=C/c1ccccc1)C(=O)O` (stereo not shown) [RNH-Z-44], the inhibitory constant (Ki) is 3300 ± 855 nM in assay [1] (setting [6]), 3300 ± 855 nM in assay [1] (setting [8]), greater than 10 µM on hSERT [2] and greater than 10000 nM on hNET [4] (setting [15]). Besides, the “Hill Coefficient” value in assay [1] (setting [7]) is reported as −2.2 ± 0.9. Further, the “[125I]RTI-55 Binding in HEK hDAT Membranes Hill slope” value in assay [1] (Table II) is on record as −2.16 ± −0.89. Further, the IC50 was 1820 ± 819 nM on hDAT (setting [9]), greater than 10 µM against hSERT [3] and greater than 10000 nM on hNET [5] (setting [14]).
As for `O=C(O)C(/C=C/c1ccccc1)C1CCN(CCOC(c2ccccc2)c2ccccc2)CC1` (stereo not shown) [ZHN-92], the inhibition constant Ki in assay [1] (setting [6]) was 3710 ± 1250 nM; on hSERT [2] it was greater than 10 µM; at hNET [4] (setting [15]), greater than 10000 nM. The “Hill Coefficient” value in assay [1] (setting [7]) was −1.2 ± 0.2. Also, the “[125I]RTI-55 Binding in HEK hDAT Membranes Hill slope” value in assay [1] (Table II) is −1.15 0.15. Besides, the IC50 at hDAT (setting [9]) was 2010 ± 428 nM; at hSERT [3] it was greater than 10 µM; at hNET [5] (setting [11]) it was 113 ± 15 nM.
In the case of `CN(CCCN1c2ccccc2C=Cc2ccccc21)C(/C=C/c1ccccc1)C(=O)O` (stereo not shown) [RNH-Z-52], the values for the Ki (in assay [1] (setting [12]); on hSERT [2]; on hNET [4] (setting [15])) were greater than 10000 nM, greater than 10 µM and greater than 10000 nM, respectively. Besides, the figures for the half-maximal inhibitory concentration (IC50) at hDAT (setting [13]), against hSERT [3] and at hNET [5] (setting [14]) were greater than 10000 nM, greater than 10 µM and greater than 10000 nM, respectively.
On to `c1ccc(CCCN2CCN(CCOC(c3ccccc3)c3ccccc3)CC2)cc1` [GBR-12935, reference compound], for which the “[125I]RTI-55 Binding in HEK-hNET Membranes Hill slope” value at hNET [4] was −0.90 ± 0.07. Also, at hNET [4] (setting [10]), the inhibitory constant (Ki) came to 628 ± 59 nM. The IC50 at hNET [5] (setting [11]) came out at 165 ± 17 nM.
As for `O=C(O)C(/C=C/c1ccccc1)N1CCC(c2ccccc2)CC1` (stereo not shown) [RNH-Z-24], the inhibition constant Ki in assay [1] (setting [12]) was greater than 10000 nM; at hSERT [2], greater than 10 µM; at hNET [4] (setting [15]), greater than 10000 nM. For the same molecule, the half-maximal inhibitory concentration (IC50) on hDAT (setting [13]) was greater than 10000 nM; against hSERT [3], greater than 10 µM; at hNET [5] (setting [11]), 204 ± 85 nM.
For `O=C(NCc1cccc2ccccc12)C(/C=C/c1ccccc1)N1CCC(c2ccccc2)CC1` (stereo not shown) [RNH-Z-31], the inhibition constant Ki was 7730 ± 3070 nM in assay [1] (setting [6]), 7730 ± 3070 nM in assay [1] (setting [8]), greater than 10 µM at hSERT [2] and greater than 10000 nM at hNET [4] (setting [15]). Moreover, the “Hill Coefficient” value in assay [1] (setting [7]) is on record as −7.0 ± 4.5. The “[125I]RTI-55 Binding in HEK hDAT Membranes Hill slope” value in assay [1] (Table II) was −7.00 ± 4.54. In addition, the IC50 is greater than 10000 nM at hDAT (setting [13]), greater than 10 µM at hSERT [3] and greater than 10000 nM on hNET [5] (setting [14]).

These data come from US7141573B2, “Polypharmacophoric agents” (Molecular Insight Pharmaceuticals, Inc., priority 2000, dated 2006).
